Key:
Experiment in all cases: cells
[1] = tested on: COLO-800; type: functional, cell-based, Homo sapiens; conditions: Homo sapiens, COLO-800;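 also: growth inhibition of COLO-800 cells, read out with a cell viability assay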
Description: SANGER: Inhibition of human COLO-800 cell growth in a cell viability assay.

[2] = tested on: COR-L88; type: functional, cell-based, Homo sapiens; conditions: Homo sapiens, COR-L88;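 also: growth inhibition of COR-L88 cells, read out with a cell viability assay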
Description: SANGER: Inhibition of human COR-L88 cell growth in a cell viability assay.

[3] = tested on: CTB-1; type: functional, cell-based, Homo sapiens; conditions: Homo sapiens, CTB-1
Description: SANGER: Inhibition of human CTB-1 cell growth in a cell viability assay.

[4] = tested on: CTV-1; type: functional, cell-based, Homo sapiens; conditions: Homo sapiens, CTV-1;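 also: growth inhibition of the cell line, read out with a cell viability assay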
Description: SANGER: Inhibition of human CTV-1 cell growth in a cell viability assay.

[5] = tested on: D-263MG; type: functional, cell-based, Homo sapiens; conditions: Homo sapiens, D-263MG
Description: SANGER: Inhibition of human D-263MG cell growth in a cell viability assay.

[6] = tested on: DJM-1; type: functional, cell-based, Homo sapiens; conditions: Homo sapiens, DJM-1;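 also: growth inhibition of human DJM-1 cells, read out by a cell viability assay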
Description: SANGER: Inhibition of human DJM-1 cell growth in a cell viability assay.

[7] = tested on: EM-2; type: functional, cell-based, Homo sapiens; conditions: Homo sapiens, EM-2;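 also: growth inhibition of EM-2 cells, read out with a cell viability assay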
Description: SANGER: Inhibition of human EM-2 cell growth in a cell viability assay.

[8] = tested on: ES6; type: functional, cell-based; conditions: Homo sapiens;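 also: growth inhibition of human ES6 cells, read out with a cell viability assay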
Description: SANGER: Inhibition of human ES6 cell growth in a cell viability assay.

[9] = tested on: EW-11; type: functional, cell-based, Homo sapiens; conditions: Homo sapiens, EW-11;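 also: growth inhibition of human EW-11 cells, measured with a cell viability assay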
Description: SANGER: Inhibition of human EW-11 cell growth in a cell viability assay.

[10] = tested on: GI-ME-N; type: functional, cell-based, Homo sapiens; conditions: Homo sapiens, GI-ME-N;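 also: growth inhibition of human GI-ME-N cells, read out with a cell viability assay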
Description: SANGER: Inhibition of human GI-ME-N cell growth in a cell viability assay.

[11] = tested on: IA-LM; type: functional, cell-based; conditions: Homo sapiens;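 also: cell viability assay measuring growth inhibition of human IA-LM cells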
Description: SANGER: Inhibition of human IA-LM cell growth in a cell viability assay.

[12] = tested on: IST-MEL1; type: functional, cell-based, Homo sapiens; conditions: Homo sapiens, IST-MEL1;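 also: growth inhibition of the cell line, read out with a cell viability assay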
Description: SANGER: Inhibition of human IST-MEL1 cell growth in a cell viability assay.

[13] = tested on: IST-SL1; type: functional, cell-based, Homo sapiens; conditions: Homo sapiens, IST-SL1;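 also: growth inhibition of human IST-SL1 cells, read out with a cell viability assay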
Description: SANGER: Inhibition of human IST-SL1 cell growth in a cell viability assay.

[14] = tested on: J-RT3-T3-5; type: functional, cell-based, Homo sapiens; conditions: Homo sapiens, J-RT3-T3-5;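 also: cell viability assay measuring growth inhibition of human J-RT3-T3-5 cells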
Description: SANGER: Inhibition of human J-RT3-T3-5 cell growth in a cell viability assay.

[15] = tested on: JVM-2; type: functional, cell-based, Homo sapiens; conditions: Homo sapiens, JVM-2;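 also: growth inhibition of JVM-2 cells determined by a cell viability assay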
Description: SANGER: Inhibition of human JVM-2 cell growth in a cell viability assay.

[16] = tested on: KARPAS-45; type: functional, cell-based, Homo sapiens; conditions: Homo sapiens, KARPAS-45;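 also: inhibition of cell line growth, read out through a viability assay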
Description: SANGER: Inhibition of human KARPAS-45 cell growth in a cell viability assay.

[17] = tested on: KLE; type: functional, cell-based; conditions: Homo sapiens;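 also: growth inhibition of human KLE cells, read out with a cell viability assay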
Description: SANGER: Inhibition of human KLE cell growth in a cell viability assay.

[18] = tested on: KNS-42; type: functional, cell-based; conditions: Homo sapiens;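 also: growth inhibition of KNS-42 cells, read out with a cell viability assay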
Description: SANGER: Inhibition of human KNS-42 cell growth in a cell viability assay.

[19] = tested on: KNS-81-FD; type: functional, cell-based, Homo sapiens; conditions: Homo sapiens, KNS-81-FD;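 also: growth inhibition of KNS-81-FD cells, read out with a cell viability assay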
Description: SANGER: Inhibition of human KNS-81-FD cell growth in a cell viability assay.

[20] = tested on: LS-1034; type: functional, cell-based, Homo sapiens; conditions: Homo sapiens, LS-1034
Description: SANGER: Inhibition of human LS-1034 cell growth in a cell viability assay.

[21] = tested on: LS-411N; type: functional, cell-based, Homo sapiens; conditions: Homo sapiens, LS-411N
[22] = tested on: Lu-65; type: functional, cell-based, Homo sapiens; conditions: Homo sapiens, Lu-65;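 also: growth inhibition of Lu-65 cancer cells, read out by a cell viability assay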
Description: SANGER: Inhibition of human LU-65 cell growth in a cell viability assay.

[23] = tested on: MFM-223; type: functional, cell-based, Homo sapiens; conditions: Homo sapiens, MFM-223
Description: SANGER: Inhibition of human MFM-223 cell growth in a cell viability assay.

[24] = tested on: MOLT-4; type: functional, cell-based, Homo sapiens; conditions: Homo sapiens, MOLT-4;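 also: growth inhibition of MOLT-4 cells, determined with a cell viability readout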
Description: SANGER: Inhibition of human MOLT-4 cell growth in a cell viability assay.

[25] = tested on: MPP-89; type: functional, cell-based, Homo sapiens; conditions: Homo sapiens, MPP-89;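 also: growth inhibition of human MPP-89 cells, read out with a cell viability assay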
Description: SANGER: Inhibition of human MPP-89 cell growth in a cell viability assay.

[26] = tested on: MS-1; type: functional, cell-based, Homo sapiens; conditions: Homo sapiens, MS-1;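 also: growth inhibition of MS-1 cells, read out by cell viability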
Description: SANGER: Inhibition of human MS-1 cell growth in a cell viability assay.

[27] = tested on: MZ7-mel; type: functional, cell-based, Homo sapiens; conditions: Homo sapiens, MZ7-mel;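 also: growth inhibition of human MZ7-mel cells, measured by a cell viability assay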
Description: SANGER: Inhibition of human MZ7-mel cell growth in a cell viability assay.

[28] = tested on: NB10; type: functional, cell-based, Homo sapiens; conditions: Homo sapiens, NB10;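 also: growth inhibition of NB10 cells, read out by a cell viability assay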
Description: SANGER: Inhibition of human NB10 cell growth in a cell viability assay.

[29] = tested on: NCI-H1650; type: functional, cell-based, Homo sapiens; conditions: Homo sapiens, NCI-H1650;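 also: growth inhibition of human NCI-H1650 cells measured by a cell viability assay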
Description: SANGER: Inhibition of human NCI-H1650 cell growth in a cell viability assay.

[30] = tested on: NCI-H1770; type: functional, cell-based, Homo sapiens; conditions: Homo sapiens, NCI-H1770;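 also: growth inhibition of NCI-H1770 cells determined with a viability readout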
Description: SANGER: Inhibition of human NCI-H1770 cell growth in a cell viability assay.

[31] = tested on: NCI-H209; type: functional, cell-based, Homo sapiens; conditions: Homo sapiens, NCI-H209;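 also: growth inhibition of human NCI-H209 cells, measured by a cell viability assay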
Description: SANGER: Inhibition of human NCI-H209 cell growth in a cell viability assay.

[32] = tested on: NCI-H23; type: functional, cell-based, Homo sapiens; conditions: Homo sapiens, NCI-H23;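 also: cell viability assay measuring growth inhibition of NCI-H23 cells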
Description: SANGER: Inhibition of human NCI-H23 cell growth in a cell viability assay.

[33] = tested on: NCI-H69; type: functional, cell-based, Homo sapiens; conditions: Homo sapiens, NCI-H69;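 also: growth inhibition of the cell line, read out with a cell viability assay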
Description: SANGER: Inhibition of human NCI-H69 cell growth in a cell viability assay.

[34] = tested on: SNU1; type: functional, cell-based, Homo sapiens; conditions: Homo sapiens, SNU1;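 also: growth inhibition of human NCI-SNU-1 cells, measured with a cell viability assay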
Description: SANGER: Inhibition of human NCI-SNU-1 cell growth in a cell viability assay.

[35] = tested on: SNU-5; type: functional, cell-based, Homo sapiens; conditions: Homo sapiens, SNU-5;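 also: cell viability readout used to measure growth inhibition in human NCI-SNU-5 cells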
Description: SANGER: Inhibition of human NCI-SNU-5 cell growth in a cell viability assay.

[36] = tested on: NH-12; type: functional, cell-based, Homo sapiens; conditions: Homo sapiens, NH-12;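 also: growth inhibition of NH-12 cells, read out with a cell viability assay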
Description: SANGER: Inhibition of human NH-12 cell growth in a cell viability assay.

[37] = tested on: ONS-76; type: functional, cell-based, Homo sapiens; conditions: Homo sapiens, ONS-76;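 also: growth inhibition of human ONS-76 cells, read out with a cell viability assay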
Description: SANGER: Inhibition of human ONS-76 cell growth in a cell viability assay.

[38] = tested on: RPMI-8866; type: functional, cell-based, Homo sapiens; conditions: Homo sapiens, RPMI-8866
Description: SANGER: Inhibition of human RPMI-8866 cell growth in a cell viability assay.

[39] = tested on: SF-539; type: functional, cell-based, Homo sapiens; conditions: Homo sapiens, SF-539;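 also: Read-out is a cell viability assay, with IC50 reflecting inhibition of cell growth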
Description: SANGER: Inhibition of human SF539 cell growth in a cell viability assay.

[40] = tested on: SK-N-DZ; type: functional, cell-based, Homo sapiens; conditions: Homo sapiens, SK-N-DZ; read-out: IC50;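 also: growth inhibition of the cancer cell line, read out through a viability assay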
Description: SANGER: Inhibition of human SK-N-DZ cell growth in a cell viability assay.

[41] = tested on: SK-N-FI; type: functional, cell-based, Homo sapiens; conditions: Homo sapiens, SK-N-FI;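 also: cell viability assay measuring growth inhibition of human SK-N-FI cells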
Description: SANGER: Inhibition of human SK-N-FI cell growth in a cell viability assay.

[42] = tested on: SNU-C2B; type: functional, cell-based; conditions: Homo sapiens;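 also: cell viability readout used to measure compound-driven suppression of SNU-C2B cell proliferation, IC50 marking half-maximal growth inhibition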
Description: SANGER: Inhibition of human SNU-C2B cell growth in a cell viability assay.

[43] = tested on: SW872; type: functional, cell-based, Homo sapiens; conditions: Homo sapiens, SW872;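 also: growth inhibition of SW872 cells, read out by a viability assay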
Description: SANGER: Inhibition of human SW872 cell growth in a cell viability assay.

[44] = tested on: 697; type: functional, cell-based, Homo sapiens; conditions: Homo sapiens
Description: SANGER: Inhibition of human 697 cell growth in a cell viability assay.

[45] = tested on: A4-Fuk; type: functional, cell-based, Homo sapiens; conditions: Homo sapiens, A4-Fuk;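 also: growth inhibition of A4-Fuk cells, read out by a cell viability assay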
Description: SANGER: Inhibition of human A4-Fuk cell growth in a cell viability assay.

[46] = tested on: BT-474; type: functional, cell-based, Homo sapiens; conditions: Homo sapiens, BT-474
Description: SANGER: Inhibition of human BT-474 cell growth in a cell viability assay.

[47] = tested on: U-266; type: functional, cell-based, Homo sapiens; conditions: Homo sapiens, U-266
Description: SANGER: Inhibition of human U-266 cell growth in a cell viability assay.

[48] = tested on: UACC-257; type: functional, cell-based, Homo sapiens; conditions: Homo sapiens, UACC-257
Description: SANGER: Inhibition of human UACC-257 cell growth in a cell viability assay.

[49] = tested on: no-11; type: functional, cell-based, Homo sapiens; conditions: Homo sapiens;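 also: growth inhibition of human NO-11 cells, read out with a cell viability assay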
Description: SANGER: Inhibition of human no-11 cell growth in a cell viability assay.

[50] = tested on: COLO-668; type: functional, cell-based, Homo sapiens; conditions: Homo sapiens, COLO-668
Description: SANGER: Inhibition of human COLO-668 cell growth in a cell viability assay.

In the case of `Cc1cc(N2CCOCC2)cc2[nH]c(-c3c(NC[C@@H](O)c4cccc(Cl)c4)cc[nH]c3=O)nc12`, the IC50 [1] is reported as > 5120 nM, the IC50 [2] is reported as > 5120 nM and the IC50 [3] is reported as > 5120 nM. The IC50 [4] was 2880 nM, the IC50 [5] was > 5120 nM and the IC50 [6] was > 5120 nM. The IC50 [7] was > 5120 nM, the IC50 [8] was 425 nM and the IC50 [9] was > 5120 nM. For the same compound, the IC50 [10] was 2060 nM, the IC50 [11] was > 5120 nM and the IC50 [12] was 4600 nM. For the same compound, the IC50 [13] was > 5120 nM, the IC50 [14] was > 5120 nM and the IC50 [15] was > 5120 nM. The IC50 [16] was 4010 nM, the IC50 [17] was 3620 nM and the IC50 [18] was > 5120 nM. For the same compound, the IC50 [19] was > 5120 nM, the IC50 [20] was 758 nM and the IC50 [21] was 498 nM. The IC50 [22] was 4500 nM, the IC50 [23] was > 5120 nM and the IC50 [24] was 4580 nM. The IC50 [25] was 3500 nM, the IC50 [26] was > 5120 nM and the IC50 [27] was > 5120 nM. For the same compound, the IC50 [28] was > 5120 nM, the IC50 [29] was > 5120 nM and the IC50 [30] was > 5120 nM. For the same compound, the IC50 [31] was > 5120 nM, the IC50 [32] was > 5120 nM and the IC50 [33] was > 5120 nM. The IC50 [34] was > 5120 nM, the IC50 [35] was > 5120 nM and the IC50 [36] was > 5120 nM. The IC50 [37] was > 5120 nM, the IC50 [38] was > 5120 nM and the IC50 [39] was > 5120 nM. For the same compound, the IC50 [40] was 2110 nM, the IC50 [41] was > 5120 nM and the IC50 [42] was 2710 nM. For the same compound, the IC50 [43] was 1980 nM, the IC50 [44] was 1120 nM and the IC50 [45] was 57.8 nM. For the same compound, the IC50 [46] was > 5120 nM, the IC50 [47] was > 5120 nM and the IC50 [48] was > 5120 nM. For the same compound, the IC50 [49] was > 5120 nM and the IC50 [50] was 1190 nM.

With `CN(C)CCOc1ccc(-c2nc(-c3ccncc3)c(-c3ccc4c(c3)CC/C4=N\O)[nH]2)cc1` [SB590885] the IC50 [1] was > 5000 nM, the IC50 [2] was > 5000 nM and the IC50 [3] was > 5000 nM. For the same compound, the IC50 [4] was > 5000 nM, the IC50 [5] was > 5000 nM and the IC50 [6] was > 5000 nM. The IC50 [7] was > 5000 nM, the IC50 [8] was > 5000 nM and the IC50 [9] was > 5000 nM. For the same compound, the IC50 [10] was > 5000 nM, the IC50 [11] was > 5000 nM and the IC50 [12] was > 5000 nM. For the same compound, the IC50 [13] was > 5000 nM, the IC50 [14] was > 5000 nM and the IC50 [15] was > 5000 nM. For the same compound, the IC50 [16] was 3920 nM, the IC50 [17] was > 5000 nM and the IC50 [18] was > 5000 nM. For the same compound, the IC50 [19] was > 5000 nM, the IC50 [20] was > 5000 nM and the IC50 [21] was > 5000 nM. The IC50 [22] was > 5000 nM, the IC50 [23] was > 5000 nM and the IC50 [24] was > 5000 nM. The IC50 [25] was > 5000 nM, the IC50 [26] was > 5000 nM and the IC50 [27] was > 5000 nM. The IC50 [28] was > 5000 nM, the IC50 [29] was > 5000 nM and the IC50 [30] was > 5000 nM. The IC50 [31] was > 5000 nM, the IC50 [32] was > 5000 nM and the IC50 [33] was > 5000 nM. For the same compound, the IC50 [34] was 2900 nM, the IC50 [35] was 1580 nM and the IC50 [36] was > 5000 nM. The IC50 [37] was > 5000 nM, the IC50 [38] was > 5000 nM and the IC50 [39] was > 5000 nM. For the same compound, the IC50 [40] was > 5000 nM, the IC50 [41] was > 5000 nM and the IC50 [42] was > 5000 nM. The IC50 [43] was > 5000 nM, the IC50 [44] was > 5000 nM and the IC50 [45] was > 5000 nM. For the same compound, the IC50 [46] was > 5000 nM, the IC50 [47] was > 5000 nM and the IC50 [48] was 1130 nM. For the same compound, the IC50 [49] was > 5000 nM and the IC50 [50] was > 5000 nM.

`NC(=O)Nc1cc(-c2cccc(F)c2)sc1C(=O)N[C@H]1CCCNC1` [AZD-7762] was tested, and the IC50 [1] was 603 nM, the IC50 [2] was 365 nM and the IC50 [3] was 133 nM. It also gave an IC50 [4] of 39 nM, an IC50 [5] of 909 nM and an IC50 [6] of 886 nM. For the same compound, the IC50 [7] was 99 nM, the IC50 [8] was 442 nM and the IC50 [9] was 563 nM. The IC50 [10] was 455 nM, the IC50 [11] was 1400 nM and the IC50 [12] was 226 nM. For the same compound, the IC50 [13] was 628 nM, the IC50 [14] was 267 nM and the IC50 [15] was > 2000 nM. For the same compound, the IC50 [16] was 168 nM, the IC50 [17] was > 2000 nM and the IC50 [18] was > 2000 nM. For the same compound, the IC50 [19] was > 2000 nM, the IC50 [20] was > 2000 nM and the IC50 [21] was 376 nM. For the same compound, the IC50 [22] was > 2000 nM, the IC50 [23] was 1240 nM and the IC50 [24] was 239 nM. For the same compound, the IC50 [25] was 245 nM, the IC50 [26] was > 2000 nM and the IC50 [27] was 347 nM. For the same compound, the IC50 [28] was 591 nM, the IC50 [29] was 1040 nM and the IC50 [30] was > 2000 nM. The IC50 [31] was 324 nM, the IC50 [32] was 248 nM and the IC50 [33] was > 2000 nM. The IC50 [34] was 271 nM, the IC50 [35] was > 2000 nM and the IC50 [36] was 357 nM. The IC50 [37] was 62 nM, the IC50 [38] was 139 nM and the IC50 [39] was 137 nM. For the same compound, the IC50 [40] was 531 nM, the IC50 [41] was 1490 nM and the IC50 [42] was 281 nM. For the same compound, the IC50 [43] was > 2000 nM, the IC50 [44] was 111 nM and the IC50 [45] was 74.9 nM. For the same compound, the IC50 [46] was > 2000 nM, the IC50 [47] was 763 nM and the IC50 [48] was > 2000 nM. The IC50 [49] was 1490 nM and the IC50 [50] was > 2000 nM.

From ChEMBL document CHEMBL1201861, “Genomics of Drug Sensitity in Cancer screening data, Wellcome Trust Sanger Institute”
